The values below come from ChEMBL document CHEMBL1128014, “Synthesis and biological activity of a potent antiplatelet 7-aminofurochromone” (Bioorg Med Chem Lett, 1994).

For assay [1], the species on record is Homo sapiens. The assay is described as follows: Compound was tested for its ability to inhibit ADP-induced human platelet aggregation. The assay is classed as functional.
Assay [2] is filed under the species Homo sapiens. The assay is described as follows: Potency to inhibit ADP-induced human platelet aggregation was determined relative to compound 1(5-Methyl-3-morpholin-4-yl-6-(2-naphthalene-1-one). The assay is classed as functional.
Assay [3] deals with Canis familiaris. Kind of assay: Effect on heart rate was determined at an iv dose of 100 ug/kg plus a constant infusion of 10 ug/kg/min in a canine model. The assay is classed as functional, Canis lupus familiaris.
Assay [4] relates to Canis familiaris. The assay is described as follows: Effect on mean arterial pressure was determined at an iv dose of 10 ug/kg/60 min in a canine model. The assay is classed as functional, Canis lupus familiaris, Artery.
For assay [5], the system named is Canis familiaris. The assay is described as follows: Effect on heart rate was determined at an iv dose of 3 ug/kg/60 min in canine model. The assay is classed as functional, Canis lupus familiaris.
For assay [6], the species on record is Homo sapiens. The assay is described as follows: Effect on cAMP levels in washed platelets at a concentration of 0.1 uM; pmol/5E8 platelets. The assay is classed as functional.
For assay [7], the species on record is Homo sapiens. The assay is described as follows: Effect on aggregation of thrombin-stimulated washed human platelets at a concentration of 0.3 uM. The assay is classed as functional.
Assay [8] relates to Canis familiaris. The assay is described as follows: Effect on Cyclical Flow Reductions induced by intracoronary platelet aggregation in stenosed canine coronary arteries at an iv dose of 30 ug/kg plus a constant infusion of 3 ug/kg/min in canine model. The assay is classed as functional, Canis lupus familiaris.
The species entered for assay [9] is Homo sapiens. The assay is described as follows: Effect on cAMP levels in washed platelets at a concentration of 0.3 uM; pmol/5E8 platelets. The assay is classed as functional. Background: Cyclic AMP is a second messenger, typically raised through Gs and lowered through Gi signalling.
Assay [10] deals with Canis familiaris. Kind of assay: Effect on Cyclical Flow Reductions induced by intracoronary platelet aggregation in stenosed canine coronary arteries at an iv dose of 10 ug/kg/60 min in a canine model. The assay is classed as functional, Canis lupus familiaris.
The species named for assay [11] is Homo sapiens. Kind of assay: Effect on aggregation of thrombin-stimulated washed human platelets at a concentration of 1 uM. The assay is classed as functional.
Assay [12] deals with Canis familiaris. The assay is described as follows: Effect on mean arterial pressure was determined at an iv dose of 30 ug/kg plus a constant infusion of 3 ug/kg/min in canine model. The assay is classed as functional, Canis lupus familiaris, Artery.
The subject of assay [13] is Canis familiaris. Kind of assay: Effect on mean arterial pressure was determined at an iv dose of 100 ug/kg plus a constant infusion of 10 ug/kg/min in canine model. The assay is classed as functional, Canis lupus familiaris, Artery.
In assay [14] the test system is Canis familiaris. Kind of assay: Effect on heart rate was determined at an iv dose of 10 ug/kg plus a constant infusion of 1 ug/kg/min in a canine model. The assay is classed as functional, Canis lupus familiaris.
For assay [15], the system named is Canis familiaris. The assay is described as follows: Time interval between end of drug treatment and restoration of CFR pattern of blood flow at an iv dose of 100 ug/kg plus a constant infusion of 10 ug/kg/min in canine model. The assay is classed as functional, Canis lupus familiaris.
Assay [16] concerns Canis familiaris. Kind of assay: Effect on Cyclical Flow Reductions induced by intracoronary platelet aggregation in stenosed canine coronary arteries at an iv dose of 100 ug/kg plus a constant infusion of 10 ug/kg/min in canine model. The assay is classed as functional, Canis lupus familiaris.
In assay [17] the test system is Canis familiaris. Kind of assay: Time interval between start of drug treatment and first change in CFR pattern of blood flow at an iv dose of 10 ug/kg/60 min in a canine model. The assay is classed as functional, Canis lupus familiaris.
The species named for assay [18] is Homo sapiens. The assay is described as follows: Effect on aggregation of thrombin-stimulated washed human platelets at a concentration of 0.1 uM. The assay is classed as functional.
Assay [19] relates to Canis familiaris. The assay is described as follows: Effect on Cyclical Flow Reductions induced by intracoronary platelet aggregation in stenosed canine coronary arteries at an iv dose of 10 ug/kg plus a constant infusion of 1 ug/kg/min in canine model. The assay is classed as functional, Canis lupus familiaris.
For assay [20], the system named is Canis familiaris. The assay is described as follows: Time interval between start of drug treatment and first change in CFR pattern of blood flow at an iv dose of 100 ug/kg plus a constant infusion of 10 ug/kg/min. The assay is classed as functional, Canis lupus familiaris.
For assay [21], the system named is Canis familiaris. Kind of assay: Effect on mean arterial pressure was determined at an iv dose of 3 ug/kg/60 min in canine model. The assay is classed as functional, Canis lupus familiaris, Artery.
The subject of assay [22] is Canis familiaris. The assay is described as follows: Time interval between end of drug treatment and restoration of CFR pattern of blood flow at an iv dose of 3 ug/kg/60 min in canine model. The assay is classed as functional, Canis lupus familiaris.
In assay [23] the test system is Canis familiaris. Kind of assay: Effect on heart rate was determined at an iv dose of 10 ug/kg/60 min in a canine model. The assay is classed as functional, Canis lupus familiaris.
In assay [24] the test system is Canis familiaris. Kind of assay: Time interval between start of drug treatment and first change in CFR pattern of blood flow at an iv dose of 30 ug/kg plus a constant infusion of 3 ug/kg/min. The assay is classed as functional, Canis lupus familiaris.
Assay [25] has as its system Canis familiaris. Kind of assay: Time interval between end of drug treatment and restoration of CFR pattern of blood flow at an iv dose of 10 ug/kg plus a constant infusion of 1 ug/kg/min in canine model. The assay is classed as functional, Canis lupus familiaris.
For assay [26], the system named is Canis familiaris. Kind of assay: Time interval between end of drug treatment and restoration of CFR pattern of blood flow at an iv dose of 30 ug/kg plus a constant infusion of 3 ug/kg/min in canine model. The assay is classed as functional, Canis lupus familiaris.
Assay [27] relates to Canis familiaris. The assay is described as follows: Effect on mean arterial pressure was determined at an iv dose of 10 ug/kg plus a constant infusion of 1 ug/kg/min in canine model. The assay is classed as functional, Canis lupus familiaris, Artery.
For assay [28], the system named is Canis familiaris. Kind of assay: Effect on Cyclical Flow Reductions induced by intracoronary platelet aggregation in stenosed canine coronary arteries at an iv dose of 3 ug/kg/60 min in canine model. The assay is classed as functional, Canis lupus familiaris.
Assay [29] relates to Canis familiaris. The assay is described as follows: Time interval between end of drug treatment and restoration of CFR pattern of blood flow at an iv dose of 10 ug/kg/60 min in a canine model. The assay is classed as functional, Canis lupus familiaris.
Assay [30] is filed under the species Homo sapiens. Kind of assay: Effect on PGI2-stimulated cAMP in washed human platelets at a concentration of 0.3 uM +1 ng/mL of PGI2; pmol/5E8 platelets. The assay is classed as functional.
The test system of assay [31] is Canis familiaris. Kind of assay: Effect on heart rate was determined at an iv dose of 30 ug/kg plus a constant infusion of 3 ug/kg/min in a canine model. The assay is classed as functional, Canis lupus familiaris.

For `Cc1c2c(cc3c(=O)cc(N4CCOCC4)oc13)CC(CN1CCSCC1)O2` (stereo not given), the IC50 (commonly the point on the concentration scale where inhibition reaches its midpoint) in the assay listed under Homo sapiens [1] worked out at 3.6 µM. The compound further displayed a Relative potency in the assay filed under Homo sapiens [2] of 2.4.
The matching figures for `Cc1c2oc(CN3CCCC3)cc2cc2c(=O)cc(N3CCOCC3)oc12`: 15.4 µM and 0.5.
As to `Cc1c(OCCN2CCN(C)CC2)ccc2c(=O)cc(N3CCOCC3)oc12`, half-maximal inhibition in the assay filed under Homo sapiens [1] (IC50) required 8.6 µM. The compound further displayed a Relative potency in the assay listed under Homo sapiens [2] of 1.
Taken in the same sequence, the figures for `Cc1c2c(cc3c(=O)cc(N4CCOCC4)oc13)CC(CN1CCCCC1)O2` (stereo not given) were 6.2 µM and 0.5.
Turning to `Cc1c2oc(CN3CCN(C)CC3)cc2cc2c(=O)cc(N3CCOCC3)oc12`, the IC50 in the assay listed under Homo sapiens [1] was 9.1 µM. In the assay listed under Homo sapiens [2], this compound yielded a Relative potency of 0.9.
Compound `Cc1c2c(cc3c(=O)cc(N4CCOCC4)oc13)CC(CN1CCN(C)CC1)O2` (stereo not given) came in with a concentration for half-maximal inhibition (IC50) in the assay filed under Homo sapiens [1] of 5.6 µM. In the assay listed under Homo sapiens [2], this compound displayed a Relative potency of 0.5.
Turning to `Cc1c2oc(CN3CCSCC3)cc2cc2c(=O)cc(N3CCOCC3)oc12`, the Heart rate is 116% in the assay with Canis familiaris [3]; 104% with Canis familiaris [5]; 106% in the assay with Canis familiaris [14]; 116% with Canis familiaris [23]; 112% in the assay with Canis familiaris [31]. For the same compound, the “Mean arterial blood pressure” value in the assay with Canis familiaris [4] was determined as 86%; with Canis familiaris [12], 88%; in the assay with Canis familiaris [13], 74%; in the assay with Canis familiaris [21] it was 93%; with Canis familiaris [27], 99%. In addition, the Activity in the assay filed under Homo sapiens [6] is 13.2; in the assay listed under Homo sapiens [9], 36.1; in the assay listed under Homo sapiens [11], 25.7; in the assay filed under Homo sapiens [18], 25.7; in the assay filed under Homo sapiens [30], 163.1. The Aggregation in the assay filed under Homo sapiens [7] is reported as 0%; in the assay listed under Homo sapiens [11], 0%; in the assay filed under Homo sapiens [18], 14%. Moreover, the CFR rating in the assay with Canis familiaris [8] is given as 2; with Canis familiaris [10] it was 3; in the assay on Canis familiaris [16] it was 3; in the assay with Canis familiaris [19], 1; in the assay with Canis familiaris [28], 3. For the same compound, inhibition in the assay filed under Homo sapiens [1] was half-maximal at 0.35 µM (IC50). This compound returned a Relative potency in the assay listed under Homo sapiens [2] of 4.5. Besides, the Offset time in the assay on Canis familiaris [15] is recorded as greater than 60 min; in the assay with Canis familiaris [22] it was 27 min; in the assay on Canis familiaris [25], 3 min; in the assay with Canis familiaris [26] it was 34 min; in the assay on Canis familiaris [29] it was 36 min. Moreover, the Onset time in the assay with Canis familiaris [17] is reported as 8 min; in the assay with Canis familiaris [20], 1 min; with Canis familiaris [24] it was 1 min.
